Experimental findings from PubChem BioAssay (NCI) are described below.

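Cells were grown in 96-well plates and exposed to each compound for 48 hours at five concentrations; endpoints were interpolated linearly between bracketing concentrations, or set to the highest concentration if not reached. At the GI50, growth is halved. TGI denotes the concentration required for complete inhibition of growth.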

Test systems include HOP-92 NSCLC; NCI-H460 lung; OVCAR-5 ovarian; COLO 205 colon; NCI/ADR-RES ovarian; HCT-15 colon; MDA-MB-231 breast; SF-539 CNS; HL-60(TB) leukemia; OVCAR-8 ovarian.
Test in all cases: NCI anticancer screen, dose series, 48 h

Regarding `COc1cc2c(cc1-c1c(C)noc1C)ncc1[nH]c(=O)n([C@H](C)c3ccccn3)c12`, the GI50 was 0.0677 µM in the assay on HOP-92 NSCLC; 11.2 µM with NCI-H460 lung; 22.4 µM in the assay on OVCAR-5 ovarian; 0.241 µM with COLO 205 colon; 10.9 µM in the assay with NCI/ADR-RES ovarian; 0.807 µM with HCT-15 colon. Further, the GI50 in the assay with MDA-MB-231 breast is 0.528 µM; in the assay with SF-539 CNS, 0.677 µM; in the assay on HL-60(TB) leukemia, 0.144 µM; in the assay with OVCAR-8 ovarian, 3.54 µM. For the same compound, the TGI is 37.3 µM in the assay with HOP-92 NSCLC; greater than 100 µM in the assay on NCI-H460 lung; greater than 100 µM in the assay with OVCAR-5 ovarian; greater than 35.6 µM in the assay on COLO 205 colon; greater than 100 µM with NCI/ADR-RES ovarian; greater than 100 µM with HCT-15 colon. For the same compound, the TGI in the assay with MDA-MB-231 breast, in the assay on SF-539 CNS, in the assay with HL-60(TB) leukemia and in the assay on OVCAR-8 ovarian was greater than 100 µM in each case.

As for `CO[C@H]1/C=C/C[C@H](C)[C@@H](C)S(=O)(=O)NC(=O)c2ccc3c(c2)N(C[C@@H]2CC[C@H]21)C[C@@]1(CCCc2cc(Cl)ccc21)CO3`, the GI50 was 1.55 µM with HOP-92 NSCLC; 1.99 µM in the assay on NCI-H460 lung; 2.91 µM in the assay with OVCAR-5 ovarian; 2.7 µM with COLO 205 colon; 2.23 µM with NCI/ADR-RES ovarian; 2.54 µM with HCT-15 colon. Besides, the GI50 was 2.11 µM in the assay with MDA-MB-231 breast, 1.85 µM with SF-539 CNS, 0.246 µM in the assay with HL-60(TB) leukemia and 3.72 µM in the assay with OVCAR-8 ovarian. The TGI in the assay with HOP-92 NSCLC is 3.4 µM; in the assay with NCI-H460 lung it was 4.17 µM; in the assay with OVCAR-5 ovarian, 11.9 µM; in the assay on COLO 205 colon, 6.6 µM; with NCI/ADR-RES ovarian it was 6.6 µM; with HCT-15 colon it was 8.43 µM. The TGI in the assay with MDA-MB-231 breast turned out to be 5.64 µM; in the assay with SF-539 CNS it was 4.55 µM; in the assay with HL-60(TB) leukemia it was 0.655 µM; in the assay with OVCAR-8 ovarian, 14.4 µM.

In the case of `COc1cccc2cc(N(C)c3nc(C)nc4ccsc34)ccc12`, the GI50 in the assay on HOP-92 NSCLC, in the assay on NCI-H460 lung, in the assay with OVCAR-5 ovarian, in the assay with COLO 205 colon, in the assay with NCI/ADR-RES ovarian and in the assay on HCT-15 colon was less than 0.01 µM throughout. Moreover, the GI50 in the assay on MDA-MB-231 breast, with SF-539 CNS, in the assay on HL-60(TB) leukemia and with OVCAR-8 ovarian was less than 0.01 µM each time. Besides, the TGI stood at 2.19 µM in the assay on HOP-92 NSCLC; 10.9 µM in the assay with NCI-H460 lung; 17.4 µM with OVCAR-5 ovarian; 11 µM in the assay on NCI/ADR-RES ovarian; 13.5 µM in the assay on HCT-15 colon; 15 µM in the assay with MDA-MB-231 breast. For the same compound, the TGI in the assay on SF-539 CNS was less than 0.01 µM; in the assay on HL-60(TB) leukemia, less than 0.01 µM; with OVCAR-8 ovarian, 38.5 µM.

As for `O=C(Nc1ccc([N+](=O)[O-])cc1)c1cc2ccccc2cc1O`, the GI50 with HOP-92 NSCLC is 0.172 µM; in the assay with NCI-H460 lung, 0.365 µM; in the assay on OVCAR-5 ovarian, 1.73 µM; with COLO 205 colon, 2.47 µM; in the assay on NCI/ADR-RES ovarian, 0.314 µM; in the assay on HCT-15 colon it was 0.365 µM. The GI50 was 0.413 µM with MDA-MB-231 breast, 0.388 µM with SF-539 CNS, 0.235 µM in the assay on HL-60(TB) leukemia and 0.425 µM with OVCAR-8 ovarian. Moreover, the TGI is 0.557 µM in the assay with HOP-92 NSCLC; 6.31 µM with NCI-H460 lung; 48.2 µM in the assay on OVCAR-5 ovarian; 6.41 µM with COLO 205 colon; 3.13 µM with NCI/ADR-RES ovarian; 5.07 µM in the assay with HCT-15 colon. Also, the TGI in the assay with MDA-MB-231 breast stood at 1.89 µM; with SF-539 CNS, 4.94 µM; in the assay with HL-60(TB) leukemia, 0.909 µM; in the assay with OVCAR-8 ovarian it was 12.6 µM.

In the case of `Cc1sc2c(c1C)C(c1ccc(Cl)cc1)=N[C@@H](CC(=O)Nc1ccc(O)cc1)c1nnc(C)n1-2`, the GI50 in the assay on HOP-92 NSCLC was 0.0423 µM; with NCI-H460 lung it was 2.95 µM; in the assay on OVCAR-5 ovarian it was 11.6 µM; in the assay on COLO 205 colon, 0.146 µM; in the assay on NCI/ADR-RES ovarian, 9.45 µM; in the assay on HCT-15 colon it was 1.46 µM. The GI50 in the assay with MDA-MB-231 breast is 0.18 µM; in the assay with SF-539 CNS, 0.629 µM; with HL-60(TB) leukemia, 0.179 µM; in the assay on OVCAR-8 ovarian, 2.26 µM. The TGI in the assay with HOP-92 NSCLC amounted to 13.1 µM; with NCI-H460 lung it was 27.4 µM; with OVCAR-5 ovarian, 30.3 µM; with COLO 205 colon it was 14.3 µM; in the assay with NCI/ADR-RES ovarian it was 69.7 µM; with HCT-15 colon, 14.9 µM. Also, the TGI came out at 21.7 µM with MDA-MB-231 breast, 19 µM in the assay on SF-539 CNS, 8.21 µM with HL-60(TB) leukemia and 40.6 µM in the assay on OVCAR-8 ovarian.

As for `CCOC(CN(C)C(=O)OCC(Cl)(Cl)Cl)OCC`, the TGI with HOP-92 NSCLC, in the assay with NCI-H460 lung, in the assay with OVCAR-5 ovarian, with COLO 205 colon, in the assay on NCI/ADR-RES ovarian and in the assay on HCT-15 colon was greater than 100 µM in each case. Besides, the TGI in the assay on MDA-MB-231 breast is greater than 100 µM; in the assay on SF-539 CNS it was greater than 100 µM; in the assay with HL-60(TB) leukemia, 59.1 µM; with OVCAR-8 ovarian, greater than 100 µM.

As for `CN(C)CCN1C(=O)c2cccc3c(-c4ccc5ncn(C6CCCCC6)c5c4)ccc(c23)C1=O`, the GI50 with HOP-92 NSCLC is 1.79 µM; in the assay with NCI-H460 lung, 1.01 µM; in the assay on OVCAR-5 ovarian it was 2.99 µM; in the assay on COLO 205 colon it was 1.21 µM; with NCI/ADR-RES ovarian, 1.14 µM; with HCT-15 colon, 1.34 µM. For the same compound, the GI50 in the assay on MDA-MB-231 breast was 2.18 µM; with SF-539 CNS, 2.19 µM; with HL-60(TB) leukemia, 2.18 µM; in the assay on OVCAR-8 ovarian, 1.21 µM. Also, the TGI was 6.45 µM in the assay with HOP-92 NSCLC; 7.41 µM in the assay with NCI-H460 lung; 20.1 µM in the assay with OVCAR-5 ovarian; 4.14 µM in the assay with COLO 205 colon; 13.4 µM with NCI/ADR-RES ovarian; 10.6 µM in the assay on HCT-15 colon. Besides, the TGI in the assay with MDA-MB-231 breast was found to be 9.78 µM; in the assay with SF-539 CNS it was 9.03 µM; in the assay on HL-60(TB) leukemia it was 10.5 µM; in the assay with OVCAR-8 ovarian it was 9.76 µM.

Regarding `COc1cc(/C=N/O)nc(-c2ccccn2)c1`, the GI50 is 0.551 µM in the assay on HOP-92 NSCLC; 0.304 µM with NCI-H460 lung; 0.637 µM with OVCAR-5 ovarian; 0.305 µM in the assay with COLO 205 colon; 0.294 µM in the assay on NCI/ADR-RES ovarian; 0.197 µM with HCT-15 colon. Also, the GI50 was 0.541 µM in the assay on MDA-MB-231 breast, 0.386 µM in the assay on SF-539 CNS, 0.271 µM in the assay with HL-60(TB) leukemia and 0.348 µM in the assay on OVCAR-8 ovarian. The TGI in the assay with HOP-92 NSCLC is greater than 100 µM; in the assay on NCI-H460 lung, 12.9 µM; in the assay on OVCAR-5 ovarian it was greater than 100 µM; in the assay on COLO 205 colon, greater than 100 µM; with NCI/ADR-RES ovarian, 10.9 µM; in the assay on HCT-15 colon, greater than 100 µM. The TGI is greater than 100 µM in the assay on MDA-MB-231 breast, 10.4 µM in the assay with SF-539 CNS, 2.81 µM with HL-60(TB) leukemia and 22.8 µM in the assay on OVCAR-8 ovarian.
